Data reported in PMC9227781, “Inhibitors of O-Acetylserine Sulfhydrylase with a Cyclopropane-Carboxylic Acid Scaffold Are Effective Colistin Adjuvants in Gram Negative Bacteria” (Pharmaceuticals, 2022).
Where two headings read alike, the source gives them in different places.

Tests used:
StOASS-A = biological target: T1, StOASS-A (Salmonella typhimurium, UniProt P0A1E3); assay: Fluorescence binding assay on purified recombinant StOASS-A; design: species or system S. Typhimurium
T1 construct: His-tag (with TEV site) (cleaved yes); made in house; host or cells: E. coli Rosetta (DE3)
T1 sequence (P0A1E3 whole entry): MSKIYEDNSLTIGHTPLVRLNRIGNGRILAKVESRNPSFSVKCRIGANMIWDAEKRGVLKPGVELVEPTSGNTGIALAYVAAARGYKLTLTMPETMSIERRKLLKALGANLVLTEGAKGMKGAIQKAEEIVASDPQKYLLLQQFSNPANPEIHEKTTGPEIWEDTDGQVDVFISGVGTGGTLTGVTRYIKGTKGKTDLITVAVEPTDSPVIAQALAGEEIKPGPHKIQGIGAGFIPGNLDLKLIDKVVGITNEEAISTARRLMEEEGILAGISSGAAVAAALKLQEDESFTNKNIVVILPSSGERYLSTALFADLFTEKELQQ
Procedure: (§1) The affinity of the compounds for StOASS-A and StOASS-B was determined on the purified recombinant proteins by an in vitro fluorescence binding assay. Measurements were carried out at 20 °C in a 3 mm pathlength quartz microcuvette in 100 mM HEPES, 5% DMSO (Applichem, Darmstadt, Germany), pH 7.0, using a Fluoromax-4 (Horiba Jobin-Yvon, Kyoto, Japan) spectrofluorometer. Emission spectra of solutions containing 0.2–1.0 μM StOASS, upon excitation of the pyridoxal 5′-phosphate cofactor at 412 nm, in the presence of increasing concentrations of compounds were collected; fluorescence intensities at 500 nm were plotted to compound concentration and data were fitted to a binding isotherm: I=I0+ΔI·compound/KD+compound where I is the fluorescence emission intensity at 500 nm in the presence of a given concentration of compound, I0 is the initial fluorescence emission in the absence of ligands, ΔI is the amplitude of the fluorescence emission change and KD is the dissociation constant. When the KD was lower than the protein concentration, data were fitted to the quadratic equation: I=I0+ΔI·OASS+compound+KD−OASS+compound+KD^2−4·OASS·compound/2
(§2) Data were collected in duplicate.
(§3) Esters were tested up to a concentration of 100 μM and no binding was observed.

E. coli ATCC 25922 = assay: MIC by broth microdilution, E. coli; assay type: cell-based, Escherichia coli; details: Escherichia coli, ATCC25922; compound alone, MHB, 24 h at 37 °C; read-out: MIC (μg/mL) E.coli ATCC 25922
Procedure: (§4) MIC values were evaluated following CLSI guidelines with some modifications, as referred to in previous work. Twofold dilutions 25.6–0.05 mg/mL of the tested compounds were performed in DMSO in separate 96-well microtiter U-plates (Greiner, Milan, Italy). In a different 96-well microtiter U-plate, for each well of the replicates, 49 µL of broth medium were added. Then, in each well of the plate, one microliter of each compound at variable dilution in DMSO was added. For each test, three independent experiments with three replicates each were performed. Tested reference bacterial strains (E. coli ATCC25922; S. Typhimurium ATCC14028; K. pneumoniae ATCC13883) were brought to the logarithmic phase of growth in MHB medium by incubation at 37 °C for 24 h. After incubation, bacterial suspensions were centrifuged (2000 rpm, 4 °C for 20 min), and then the pellets were resuspended in 100 mM phosphate buffer, pH 7.0, to reach a final bacterial concentration of 10^8 CFU/mL, adjusted by spectrophotometry (OD620nm ranged between 0.08–0.13). The obtained suspensions were further diluted 1:100 in broth medium to reach a bacterial concentration of 10^6 CFU/mL. Fifty µL of the bacterial suspension containing 10^6 CFU/mL were inoculated into each well within 30 min, to obtain a final concentration of 5 × 10^5 CFU/mL in a total volume of 100 µL. The final dilution range tested was 256–0.5 µg/mL. Growth and sterility controls were performed for each strain and for each tested compound. Plates were then incubated for 24 h at 37 °C in a static aerobic atmosphere. After incubation, plates were read by unaided eye with a microtiter reading mirror and then the OD of each well of the plates was measured spectrophotometrically at 620 nm. MIC values were calculated as the arithmetic mean ± standard deviation (SD) of the unaided eye reading and the inhibition of growth for each tested dilution was calculated from the OD values (mean ± SD). A quality control microorganism (E. coli ATCC 25922) was tested periodically to validate the accuracy of the procedure.

StOASS-B = biological target: T2, StOASS-B (Salmonella typhimurium, UniProt P29848); assay: Fluorescence binding assay on purified recombinant StOASS-B
T2 construct: His-tag (with TEV site) (cleaved yes); made in house; host or cells: E. coli Rosetta (DE3)
T2 sequence (P29848 1-303): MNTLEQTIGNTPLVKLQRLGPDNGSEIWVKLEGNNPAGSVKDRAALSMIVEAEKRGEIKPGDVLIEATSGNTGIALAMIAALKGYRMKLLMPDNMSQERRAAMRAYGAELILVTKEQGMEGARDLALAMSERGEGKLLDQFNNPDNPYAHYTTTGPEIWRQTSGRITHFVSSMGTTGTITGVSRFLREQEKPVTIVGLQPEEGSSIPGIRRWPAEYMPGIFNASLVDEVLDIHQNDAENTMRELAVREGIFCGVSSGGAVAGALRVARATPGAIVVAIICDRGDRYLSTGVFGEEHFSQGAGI
Procedure: as §1, §2, §3

S. Typhimurium ATCC14028 = assay: MIC by broth microdilution, S. Typhimurium; assay type: cell-based, Salmonella enterica serovar Typhimurium; details: Salmonella enterica; compound alone, MHB, 24 h at 37 °C; read-out: MIC (μg/mL) S. Typhimurium ATCC14028
Procedure: as §4

K. pneumoniae ATCC13883 = assay: MIC by broth microdilution, K. pneumoniae; assay type: cell-based, Klebsiella pneumoniae; details: Klebsiella pneumoniae, ATCC13883; compound alone, MHB, 24 h at 37 °C; read-out: MIC (μg/mL) K. pneumoniae ATCC13883
Procedure: as §4

[1] = 20 °C, 100 mM HEPES, 5% DMSO, pH 7.0, racemic mixture, esters tested up to 100 μM
[2] = 20 °C, 100 mM HEPES, 5% DMSO, pH 7.0, racemic mixture, esters tested up to 100 μM, read-out: KD (μM) OASS-A

Cc1ccc(C[C@@]2(C(=O)O)C[C@H]2c2cccc(-c3cc(O)cc(F)c3)c2)cc1 (relative stereo) [Compound 9e, trans-2-(3′-fluoro-5′-hydroxy-[1,1′-biphenyl]-3-yl)-1-(4-methylbenzyl)cyclopropanecarboxylic acid]
KD (μM) OASS-A (StOASS-A; [1]): low nanomolar range
Kd (StOASS-A; [2]): 0.035 ± 0.003 µM
MIC (E. coli ATCC 25922): > 512 µg/mL
Kd (StOASS-B): 0.61 ± 0.08 µM
MIC (S. Typhimurium ATCC14028): > 512 µg/mL
MIC (K. pneumoniae ATCC13883): > 512 µg/mL

Cc1ccc(C[C@@]2(C(=O)O)C[C@H]2c2cccc(-c3cccc(F)c3)c2)cc1 (relative stereo) [Compound 9f, trans-2-(3′-fluoro-[1,1′-biphenyl]-3-yl)-1-(4-methylbenzyl)cyclopropanecarboxylic acid]
KD (μM) OASS-A (StOASS-A; [1]): low nanomolar range
Kd (StOASS-A; [2]): 0.051 ± 0.004 µM
MIC (E. coli ATCC 25922): > 512 µg/mL
Kd (StOASS-B): 1.45 ± 0.31 µM
MIC (S. Typhimurium ATCC14028): > 512 µg/mL
MIC (K. pneumoniae ATCC13883): > 512 µg/mL

Cc1ccc(C[C@@]2(C(=O)O)C[C@H]2c2cccc(-c3cn[nH]c3)c2)cc1 (relative stereo) [Compound 9c, trans-2-(3-(1H-pyrazol-4-yl)phenyl)-1-(4-methylbenzyl)cyclopropanecarboxylic acid]
Kd (StOASS-A; [2]): 1.01 ± 0.38 µM
MIC (E. coli ATCC 25922): > 512 µg/mL
Kd (StOASS-B): 3.05 ± 0.18 µM
MIC (S. Typhimurium ATCC14028): > 512 µg/mL
MIC (K. pneumoniae ATCC13883): > 512 µg/mL

CCOC(=O)[C@]1(Cc2ccc(C)cc2)C[C@H]1c1cccc(-c2ccccc2)c1 (relative stereo) [Compound 8d, trans-ethyl 2-([1,1′-biphenyl]-3-yl)-1-(4-methylbenzyl)cyclopropanecarboxylate]
KD (μM) OASS-A (StOASS-A; [1]): No binding
MIC (E. coli ATCC 25922): > 512 µg/mL
KD (μM) OASS-B (StOASS-B; [1]): No binding
MIC (S. Typhimurium ATCC14028): > 512 µg/mL
MIC (K. pneumoniae ATCC13883): > 512 µg/mL

Cc1ccc(C[C@@]2(C(=O)O)C[C@H]2c2cccc(N3CCN(C)CC3)c2)cc1 (relative stereo) [Compound 21j, trans-1-(4-methylbenzyl)-2-(3-(4-methylpiperazin-1-yl)phenyl)cyclopropanecarboxylic acid]
KD (μM) OASS-A (StOASS-A; [1]): good activity
Kd (StOASS-A; [2]): 0.25 ± 0.06 µM
MIC (E. coli ATCC 25922): > 512 µg/mL
Kd (StOASS-B): 23.6 ± 4.5 µM
KD (μM) OASS-B (StOASS-B; [1]): detrimental effect
MIC (S. Typhimurium ATCC14028): > 512 µg/mL
MIC (K. pneumoniae ATCC13883): > 512 µg/mL

Cc1ccc(C[C@@]2(C(=O)O)C[C@H]2c2cccc(N3CCOCC3)c2)cc1 (relative stereo) [Compound 13g, trans-1-(4-methylbenzyl)-2-(3-morpholinophenyl)cyclopropanecarboxylic acid]
Kd (StOASS-A; [2]): 0.1 ± 0.01 µM
MIC (E. coli ATCC 25922): > 512 µg/mL
Kd (StOASS-B): 3.86 ± 0.29 µM
MIC (S. Typhimurium ATCC14028): > 512 µg/mL
MIC (K. pneumoniae ATCC13883): > 512 µg/mL

Cc1ccc(C[C@@]2(C(=O)O)C[C@H]2c2cccc(-c3c[nH]nc3C)c2)cc1 (relative stereo) [Compound 9b, trans-2-(3-(3-methyl-1H-pyrazol-4-yl)phenyl)-1-(4-methylbenzyl)cyclopropanecarboxylic acid]
Kd (StOASS-A; [2]): 1.86 ± 0.76 µM
MIC (E. coli ATCC 25922): > 512 µg/mL
Kd (StOASS-B): 2.63 ± 0.04 µM
MIC (S. Typhimurium ATCC14028): > 512 µg/mL
MIC (K. pneumoniae ATCC13883): > 512 µg/mL

Cc1ccc(C[C@@]2(C(=O)O)C[C@H]2c2cccc(N3CCNCC3)c2)cc1 (relative stereo) [Compound 21i, trans-1-(4-methylbenzyl)-2-(3-(piperazin-1-yl)phenyl)cyclopropanecarboxylic acid]
Kd (StOASS-A): 0.45 ± 0.09 µM
KD (μM) OASS-A (StOASS-A; [1]): good activity
MIC (E. coli ATCC 25922): > 512 µg/mL
KD (μM) OASS-B (StOASS-B; [1]): detrimental effect
Kd (StOASS-B; 20 °C, 100 mM HEPES, 5% DMSO, pH 7.0, racemic mixture, esters tested up to 100 μM, read-out: KD (μM) OASS-B): 83.8 ± 16.1 µM
MIC (S. Typhimurium ATCC14028): > 512 µg/mL
MIC (K. pneumoniae ATCC13883): > 512 µg/mL

Cc1ccc(C[C@@]2(C(=O)O)C[C@H]2c2cccc(-c3cnc(N)nc3)c2)cc1 (relative stereo) [Compound 9a, trans-2-(3-(2-aminopyrimidin-5-yl)phenyl)-1-(4-methylbenzyl)cyclopropanecarboxylic acid]
Kd (StOASS-A; [2]): 0.57 ± 0.16 µM
MIC (E. coli ATCC 25922): > 512 µg/mL
Kd (StOASS-B): 1.29 ± 0.09 µM
MIC (S. Typhimurium ATCC14028): > 512 µg/mL
MIC (K. pneumoniae ATCC13883): > 512 µg/mL

CCOC(=O)C1(Cc2ccc(C)cc2)CC1c1cccc(-c2cnc(N)nc2)c1 (stereo not drawn) [Compound 8a, ethyl 2-(3-(2-aminopyrimidin-5-yl)phenyl)-1-(4-methylbenzyl)cyclopropanecarboxylate]
MIC (E. coli ATCC 25922): > 512 µg/mL
MIC (S. Typhimurium ATCC14028): > 512 µg/mL
MIC (K. pneumoniae ATCC13883): > 512 µg/mL
